Measured values: ChEMBL document CHEMBL1201862, “PubChem BioAssay data set” (2004)
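Growth conditions: 96-well plates. Treatment: test compound, 48 hours, 5 concentrations. Analysis: linear interpolation between bracketing concentrations; unreached endpoints set to highest concentration. At the GI50, growth is halved.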 Calls of active or inactive are those of the source. Cut-off read from the data, not from the text of the source: active = GI50 up to about 1.1 µM and inactive = higher.

Key:
Test in all cases: NCI anticancer screen, dose series, 48 h
SW-620 = test system: SW-620
HCT-15 = test system: HCT-15
UO-31 = test system: UO-31
XF498 = test system: XF498
SF-295 = test system: SF-295
HCT-116 = test system: HCT-116
SNB-78 = test system: SNB-78
SK-MEL-5 = test system: SK-MEL-5
K562 = test system: K562
HCC 2998 = test system: HCC 2998
UACC-257 = test system: UACC-257
M19-MEL = test system: M19-MEL
SK-MEL-28 = test system: SK-MEL-28
DLD-1 = test system: DLD-1
HOP-92 = test system: HOP-92
OVCAR-8 = test system: OVCAR-8
CCRF-CEM = test system: CCRF-CEM
KM12 = test system: KM12
TK-10 = test system: TK-10
A498 = test system: A498
SN12C = test system: SN12C
CAKI-1 = test system: CAKI-1
SF-268 = test system: SF-268
RPMI-8226 = test system: RPMI-8226
HOP-62 = test system: HOP-62
Malme-3M = test system: Malme-3M
U-251 = test system: U-251
EKVX = test system: EKVX
SF-539 = test system: SF-539
OVCAR-4 = test system: OVCAR-4
UACC-62 = test system: UACC-62
HT-29 = test system: HT-29
SK-OV-3 = test system: SK-OV-3
ACHN = test system: ACHN
HL-60 = test system: HL-60
LOX IMVI = test system: LOX IMVI
SK-MEL-2 = test system: SK-MEL-2
M14 = test system: M14
NCI-H522 = test system: NCI-H522
NCI-H23 = test system: NCI-H23
OVCAR-3 = test system: OVCAR-3
OVCAR-5 = test system: OVCAR-5
NCI-H460 = test system: NCI-H460
LXFL 529 = test system: LXFL 529
SNB-19 = test system: SNB-19
A549 = test system: A549
IGROV-1 = test system: IGROV-1
DMS-114 = test system: DMS-114
KM-20L2 = test system: KM-20L2
786-0 = test system: 786-0
COLO 205 = test system: COLO 205
SNB-75 = test system: SNB-75
MOLT-4 = test system: MOLT-4
DMS-273 = test system: DMS-273
HOP-18 = test system: HOP-18

Compound: COc1ccc(/C=C2/C(=O)N(C(=O)c3ccc(Cl)cc3)N=C2C)cc1OC
- GI50 (SW-620): > 100 µM (inactive)
- GI50 (HCT-15): > 100 µM
- GI50 (UO-31): > 100 µM (inactive)
- GI50 (XF498): > 100 µM (inactive)
- GI50 (SF-295): > 100 µM (inactive)
- GI50 (HCT-116): > 100 µM (inactive)
- GI50 (SNB-78): > 100 µM (inactive)
- GI50 (SK-MEL-5): > 100 µM (inactive)
- GI50 (K562): > 100 µM (inactive)
- GI50 (HCC 2998): > 100 µM (inactive)
- GI50 (UACC-257): > 100 µM (inactive)
- GI50 (M19-MEL): > 100 µM (inactive)
- GI50 (SK-MEL-28): > 100 µM (inactive)
- GI50 (DLD-1): > 100 µM (inactive)
- GI50 (HOP-92): > 100 µM (inactive)
- GI50 (OVCAR-8): > 100 µM (inactive)
- GI50 (CCRF-CEM): > 100 µM (inactive)
- GI50 (KM12): > 100 µM (inactive)
- GI50 (TK-10): > 100 µM (inactive)
- GI50 (A498): > 100 µM (inactive)
- GI50 (SN12C): > 100 µM (inactive)
- GI50 (CAKI-1): > 100 µM (inactive)
- GI50 (SF-268): > 100 µM (inactive)
- GI50 (RPMI-8226): > 100 µM (inactive)
- GI50 (HOP-62): > 100 µM (inactive)
- GI50 (Malme-3M): > 100 µM (inactive)
- GI50 (U-251): > 100 µM (inactive)
- GI50 (EKVX): > 100 µM (inactive)
- GI50 (SF-539): > 100 µM (inactive)
- GI50 (OVCAR-4): > 100 µM (inactive)
- GI50 (UACC-62): > 100 µM (inactive)
- GI50 (HT-29): > 100 µM (inactive)
- GI50 (SK-OV-3): > 100 µM (inactive)
- GI50 (ACHN): > 100 µM (inactive)
- GI50 (HL-60): > 100 µM (inactive)
- GI50 (LOX IMVI): > 100 µM (inactive)
- GI50 (SK-MEL-2): > 100 µM (inactive)
- GI50 (M14): > 100 µM (inactive)
- GI50 (NCI-H522): > 100 µM (inactive)
- GI50 (NCI-H23): > 100 µM (inactive)
- GI50 (OVCAR-3): > 100 µM (inactive)
- GI50 (OVCAR-5): > 100 µM (inactive)
- GI50 (NCI-H460): > 100 µM (inactive)
- GI50 (LXFL 529): > 100 µM (inactive)
- GI50 (SNB-19): > 100 µM (inactive)
- GI50 (A549): > 100 µM (inactive)
- GI50 (IGROV-1): > 100 µM (inactive)
- GI50 (DMS-114): > 100 µM (inactive)
- GI50 (KM-20L2): > 100 µM (inactive)
- GI50 (786-0): > 100 µM (inactive)
- GI50 (COLO 205): > 100 µM (inactive)

Compound: NC(=O)c1ccccc1[N+](=O)[O-]
- GI50 (SW-620): > 100 µM (inactive)
- GI50 (HCT-15): > 100 µM
- GI50 (XF498): > 100 µM (inactive)
- GI50 (HCT-116): > 100 µM (inactive)
- GI50 (SNB-78): > 100 µM (inactive)
- GI50 (SK-MEL-5): > 100 µM (inactive)
- GI50 (K562): > 100 µM (inactive)
- GI50 (HCC 2998): > 100 µM (inactive)
- GI50 (M19-MEL): > 100 µM (inactive)
- GI50 (SK-MEL-28): > 100 µM (inactive)
- GI50 (HOP-92): > 100 µM (inactive)
- GI50 (OVCAR-8): > 100 µM (inactive)
- GI50 (CCRF-CEM): > 10 µM (inactive)
- GI50 (A498): > 100 µM (inactive)
- GI50 (SN12C): > 100 µM (inactive)
- GI50 (CAKI-1): > 100 µM (inactive)
- GI50 (SF-268): > 100 µM (inactive)
- GI50 (RPMI-8226): > 100 µM (inactive)
- GI50 (HOP-62): > 100 µM (inactive)
- GI50 (Malme-3M): > 100 µM (inactive)
- GI50 (U-251): > 100 µM (inactive)
- GI50 (EKVX): > 100 µM (inactive)
- GI50 (SF-539): > 100 µM (inactive)
- GI50 (SNB-75): > 100 µM (inactive)
- GI50 (UACC-62): > 100 µM (inactive)
- GI50 (HT-29): > 100 µM (inactive)
- GI50 (ACHN): > 100 µM (inactive)
- GI50 (OVCAR-3): > 100 µM (inactive)
- GI50 (MOLT-4): > 100 µM (inactive)
- GI50 (DMS-273): > 100 µM (inactive)
- GI50 (SNB-19): > 100 µM (inactive)
- GI50 (A549): > 100 µM (inactive)
- GI50 (IGROV-1): > 100 µM (inactive)
- GI50 (HOP-18): > 100 µM (inactive)
- GI50 (DMS-114): > 100 µM (inactive)
- GI50 (KM-20L2): > 100 µM (inactive)
- GI50 (786-0): > 100 µM (inactive)
- GI50 (COLO 205): > 100 µM (inactive)
